Results as given in publication PMC12575627 (Nature Communications, 2025).

Legend:
Assay in all cases: […]CABP radioligand binding
Format in all cases: biochemical
Details in all cases: labelled compound, E. coli soluble protein
RrRubisco (RrL2) = target: T1, RrRubisco (RrL2) (Rhodospirillum rubrum, UniProt P04718)
T1 sequence (P04718 1-466): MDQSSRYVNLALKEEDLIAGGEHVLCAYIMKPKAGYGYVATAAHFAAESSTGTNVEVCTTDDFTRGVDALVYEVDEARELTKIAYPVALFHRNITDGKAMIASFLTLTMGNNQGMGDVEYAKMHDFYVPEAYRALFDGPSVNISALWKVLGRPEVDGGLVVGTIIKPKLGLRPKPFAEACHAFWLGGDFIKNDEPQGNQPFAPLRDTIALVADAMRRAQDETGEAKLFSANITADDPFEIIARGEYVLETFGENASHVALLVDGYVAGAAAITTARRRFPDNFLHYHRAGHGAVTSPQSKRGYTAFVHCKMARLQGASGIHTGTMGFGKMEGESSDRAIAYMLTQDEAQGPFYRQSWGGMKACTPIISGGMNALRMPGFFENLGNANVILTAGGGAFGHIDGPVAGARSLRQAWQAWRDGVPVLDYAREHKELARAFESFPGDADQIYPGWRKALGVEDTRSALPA

RrL^c2 = target: T2, RrL^c2 (Rhodospirillum rubrum, UniProt P04718)
T2 sequence (P04718 1-466): T1 sequence (P04718 1-466)

Rr^cL2 = target: T3, Rr^cL2 (Rhodospirillum rubrum, UniProt P04718)
T3 sequence (P04718 1-466): T1 sequence (P04718 1-466)

## O=C(O)[C@@](O)(COP(=O)(O)O)[C@H](O)[C@H](O)COP(=O)(O)O [14CABP]
RrRubisco (RrL2)
  14CABP radioligand binding (active-site quantification): CLP tagging to RbcL was found to have no measurable impact on RrRubisco formation
RrL^c2
  14CABP radioligand binding (active-site quantification): CLP tagging to RbcL was found to have no measurable impact on RrRubisco formation
Rr^cL2
  14CABP radioligand binding (active-site quantification): CLP tagging to RbcL was found to have no measurable impact on RrRubisco formation
